Consider 46 compounds from BindingDB's records for doi:10.7270/Q2KP80J0 (The Scripps Research Institute Molecular Screening Center, 2007).

Some results are limits rather than exact numbers.

Usually IC50 stands for the midpoint of a concentration-inhibition curve. Low values mean inhibition by little substance, high ones a need for much substance.

One experiment has as its target T1, Ephrin type-B receptor 4 (Homo sapiens, UniProt P54760).
T1 sequence (P54760 whole entry): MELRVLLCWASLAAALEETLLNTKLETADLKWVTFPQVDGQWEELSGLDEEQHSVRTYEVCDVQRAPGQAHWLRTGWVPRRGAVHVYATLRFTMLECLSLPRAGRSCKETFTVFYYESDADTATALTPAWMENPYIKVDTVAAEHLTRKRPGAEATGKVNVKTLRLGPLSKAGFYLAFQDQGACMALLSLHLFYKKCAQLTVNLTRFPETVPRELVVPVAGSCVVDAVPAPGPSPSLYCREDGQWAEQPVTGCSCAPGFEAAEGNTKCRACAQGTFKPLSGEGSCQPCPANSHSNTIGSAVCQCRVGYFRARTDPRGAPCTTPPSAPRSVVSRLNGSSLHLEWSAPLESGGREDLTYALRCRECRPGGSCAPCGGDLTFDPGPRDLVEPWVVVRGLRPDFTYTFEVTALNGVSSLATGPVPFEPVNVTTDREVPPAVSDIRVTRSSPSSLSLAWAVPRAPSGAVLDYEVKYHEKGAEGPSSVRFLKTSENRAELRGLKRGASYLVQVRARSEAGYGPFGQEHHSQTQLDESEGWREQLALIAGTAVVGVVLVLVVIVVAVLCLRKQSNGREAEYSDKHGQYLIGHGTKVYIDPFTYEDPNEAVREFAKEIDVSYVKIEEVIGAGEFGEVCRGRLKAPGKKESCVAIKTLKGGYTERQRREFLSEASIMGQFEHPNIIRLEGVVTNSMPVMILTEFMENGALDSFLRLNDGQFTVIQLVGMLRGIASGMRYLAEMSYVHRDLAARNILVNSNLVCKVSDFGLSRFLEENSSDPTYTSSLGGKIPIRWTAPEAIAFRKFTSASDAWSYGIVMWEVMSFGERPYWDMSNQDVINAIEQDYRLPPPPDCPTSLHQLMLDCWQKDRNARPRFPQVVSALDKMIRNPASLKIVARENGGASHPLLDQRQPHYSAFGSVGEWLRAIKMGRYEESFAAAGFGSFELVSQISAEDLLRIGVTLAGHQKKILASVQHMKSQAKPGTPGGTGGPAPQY
Put plainly: EphB4-ephrin-B2 interaction antagonists, dose response, biochemical, TNYL-RAW peptide displacement (AID 835).
Details: not given
Consider `O=C(NCCCN1CCCC1=O)NC12CC3CC(CC(C3)C1)C2` [MLS000050547], for which the IC50 is > 79.4 µM. Still for that read-out and setting: the figure for `O=S(=O)(N1CCOCC1)N1CCN(c2ccccc2F)CC1` [4-[4-(2-fluorophenyl)piperazin-1-yl]sulfonylmorpholine] is > 79.4 µM; for `CCCn1c(NC(=O)C2COc3ccccc3O2)nc2ccccc21` (stereo unspecified) [MLS000053418] it is > 79.4 µM; for `Cc1cc(=O)n(CC(C)C)c(O)c1C#N` [2-hydroxy-1-isobutyl-4-methyl-6-oxo-1,6-dihydro-3-pyridinecarbonitrile] it is > 79.4 µM. The same measure, in the same setting: the figure for `CCOC(=O)C1CCN(S(=O)(=O)Cc2ccccc2)C1=O` (stereo unspecified) [1-benzylsulfonyl-2-keto-pyrrolidine-3-carboxylic acid ethyl ester] is > 79.4 µM; for `C=CCn1c(C#N)c(N)sc1=N` [3-Allyl-5-amino-2-imino-2,3-dihydro-thiazole-4-carbonitrile] it is > 79.4 µM; for `Cc1cc(=O)oc(C)c1C(=O)OCC(=O)c1ccc(Cl)cc1` [2,4-Dimethyl-6-oxo-6H-pyran-3-carboxylic acid 2-(4-chloro-phenyl)-2-oxo-ethyl ester] it is > 79.4 µM.

Take `COc1ccc2[nH]c(=O)c(CN(Cc3ccccc3)Cc3nnnn3CC3CCCO3)cc2c1` (stereo unspecified) [3-({Benzyl-[1-(tetrahydro-furan-2-ylmethyl)-1H-tetrazol-5-ylmethyl]-amino}-methyl)-6-methoxy-1H-quinolin-2-one]: the IC50 was > 79.4 µM.

`O=C(CN(Cc1cccs1)C(=O)CSc1nnc(COc2ccccc2)o1)NC1CCCC1` [MLS000077370]: the IC50 is > 79.4 µM. Turning to `Cc1ccc(Cn2c(SCCN3CCCCC3)nc3c2c(=O)n(C)c(=O)n3C)cc1` [1,3-Dimethyl-7-(4-methyl-benzyl)-8-(2-piperidin-1-yl-ethylsulfanyl)-3,7-dihydro-purine-2,6-dione], the IC50 was > 79.4 µM. Still for that read-out and setting: the figure for `O=C(c1ccc(COc2ccccc2Cl)o1)N1CCN(Cc2ccc3c(c2)OCO3)CC1` [1-(1,3-benzodioxol-5-ylmethyl)-4-{5-[(2-chlorophenoxy)methyl]-2-furoyl}piperazine] is > 79.4 µM; for `CSc1cccc(-n2c(C)cc(C(N)=O)c2C)c1` [2,5-dimethyl-1-(3-methylsulfanylphenyl)pyrrole-3-carboxamide] it is > 79.4 µM. Same read-out and setting: in the case of `Cc1cccc(NC(=O)CSc2nnc(-c3ccc(S(=O)(=O)N4CCCC4)cc3)o2)c1` [2-{5-[4-(Pyrrolidine-1-sulfonyl)-phenyl]-[1,3,4]oxadiazol-2-ylsulfanyl}-N-m-tolyl-acetamide] it was > 79.4 µM. Same read-out and setting: in the case of `CCCc1nnc(NC(=O)CN2C(=O)c3ccccc3S2(=O)=O)s1` [2-(1,1-dioxido-3-oxo-1,2-benzisothiazol-2(3H)-yl)-N-(5-propyl-1,3,4-thiadiazol-2-yl)acetamide] it was > 79.4 µM. Regarding `O=C(/C=C/c1ccccc1Cl)NCc1ccccc1` [(E)-3-(2-chlorophenyl)-N-(phenylmethyl)-2-propenamide], the IC50 was > 79.4 µM.

Consider `CC1CCN(S(=O)(=O)c2cc(Br)cc(C(=O)NC3=NCCS3)c2)CC1` [3-bromanyl-N-(4,5-dihydro-1,3-thiazol-2-yl)-5-(4-methylpiperidin-1-yl)sulfonyl-benzamide], for which the IC50 is > 79.4 µM. Regarding `CC1(C)Cc2ccccc2-c2nnc(SCC(=O)Nc3nc4ccccc4s3)n21` [MLS000077330], the IC50 is > 79.4 µM. Same read-out and setting: in the case of `O=C(Nc1ccccc1C(=O)N1CCOCC1)c1ccncc1` [MLS000109827] it was > 79.4 µM.

Consider `Oc1c(CN2CCCCC2)cc(COCc2ccccc2)c2cccnc12` [5-(benzoxymethyl)-7-(piperidinomethyl)quinolin-8-ol], for which the IC50 was > 79.4 µM. Same read-out and setting: in the case of `CCCCCCOC(=O)C(C#N)c1nc2ccccc2nc1N1CCN(C)CC1` (stereo unspecified) [2-cyano-2-[3-(4-methyl-1-piperazinyl)-2-quinoxalinyl]acetic acid hexyl ester] it was > 79.4 µM.

Take `Cc1ccc(-c2nc3cccnc3o2)cc1NC(=O)COc1ccc(C(C)(C)C)cc1` [2-(4-tert-butylphenoxy)-N-(2-methyl-5-[1,3]oxazolo[5,4-b]pyridin-2-ylphenyl)acetamide]: the IC50 is > 79.4 µM. The same measure, in the same setting: in the case of `CC(=O)c1ccc(N2CCN(C(=O)c3ccc(Br)cc3)CC2)c(F)c1` [1-[4-[4-(4-bromobenzoyl)piperazin-1-yl]-3-fluorophenyl]ethanone] it was > 79.4 µM; in that of `COc1ccccc1C1CC(c2c(O)nc3ccc(Cl)cc3c2-c2ccccc2)=NN1S(C)(=O)=O` (stereo unspecified) [(3Z)-6-chloranyl-3-[5-(2-methoxyphenyl)-1-methylsulfonyl-pyrazolidin-3-ylidene]-4-phenyl-quinolin-2-one], > 79.4 µM; in that of `CN(c1ccc(Cl)cc1)c1cc(=O)n(C)c2ccccc12` [4-(4-chloro-N-methyl-anilino)-1-methyl-carbostyril], > 79.4 µM. On the same count and under the same terms, in the case of `COc1ccc(C(C)NC(=O)c2ccccc2)cc1` (stereo unspecified) [MLS000525960] it was > 79.4 µM; in that of `COC(=O)CSC1=NC2=C(C(=O)CCC2)C(c2ccc(C)cc2)C1C#N` (stereo unspecified) [methyl 2-[[3-cyano-4-(4-methylphenyl)-5-oxo-4,6,7,8-tetrahydro-1H-quinolin-2-yl]sulfanyl]acetate], > 79.4 µM; in that of `Cc1cc(OC(=O)c2ccco2)c2c3c(c(=O)oc2c1)CCCC3` [(3-methyl-6-oxidanylidene-7,8,9,10-tetrahydrobenzo[c]chromen-1-yl) furan-2-carboxylate], > 79.4 µM.

As for `O=[N+]([O-])/C=C/c1cn(Cc2ccc(F)cc2)c2ccccc12` [MLS000577100], the IC50 is > 79.4 µM. Still for that read-out and setting: in the case of `CCOC(=O)C1=C(c2ccccc2)N2C=CS(=O)(=O)NC2S1` (stereo unspecified) [MLS000048572] it was > 79.4 µM; in that of `O=C(/C=C/c1cccc([N+](=O)[O-])c1)NCCN1CCOCC1` [(E)-N-(2-morpholin-4-ylethyl)-3-(3-nitrophenyl)prop-2-enamide], > 79.4 µM. The same measure, in the same setting: in the case of `O=C(Nc1cccnc1)C1COc2ccccc2O1` (stereo unspecified) [2,3-Dihydro-benzo[1,4]dioxine-2-carboxylic acid pyridin-3-ylamide] it was > 79.4 µM; in that of `O=C1c2ccccc2-c2onc3ccc(NCCCn4ccnc4)c1c23` [SMR000044769], 0.8 µM. On to `O=C1CN(C(=O)CN2CCCCC2)C(c2ccccc2)c2cc(Br)ccc2N1` (stereo unspecified) [7-bromanyl-5-phenyl-4-(2-piperidin-1-ylethanoyl)-3,5-dihydro-1H-1,4-benzodiazepin-2-one], for which the IC50 is > 79.4 µM. Still for that read-out and setting: in the case of `COCCCNc1c(O)nc2cccc3c2c1-c1ccccc1C3=O` [SMR000017250] it was 5.3 µM; in that of `CCOC(=O)N1CCC(n2c(SCC(=O)NCc3ccccc3)nc3ccccc3c2=O)CC1` [4-[2-[[2-(benzylamino)-2-keto-ethyl]thio]-4-keto-quinazolin-3-yl]piperidine-1-carboxylic acid ethyl ester], > 79.4 µM; in that of `Clc1cccc(CN=Nc2ncnc3ccccc23)c1` [3-chlorobenzenecarbaldehyde N-(4-quinazolinyl)hydrazone], > 79.4 µM. On the same count and under the same terms, the figure for `O=C(Nc1ccc2c(c1)OCO2)C1CC(c2ccc(F)cc2)=NO1` (stereo unspecified) [MLS000520439] is > 79.4 µM.

As to `Oc1ccccc1C=Nn1c(-c2cccs2)n[nH]c1=S` [SMR000168763], the IC50 is > 79.4 µM. Consider `O=S1(=O)c2cccc3cccc(c23)N1Cc1nnc(-c2ccccc2Br)o1` [MLS000081705], for which the IC50 was > 79.4 µM. In the case of `CC(O)c1cccc(NC(=O)CCC(=O)O)c1` (stereo unspecified) [4-[3-(1-hydroxyethyl)anilino]-4-keto-butyric acid], the IC50 is > 79.4 µM. The same measure, in the same setting: the figure for `Cn1c(=O)c(NCCO)c2c3c(cccc31)C(=O)c1ccccc1-2` [1-(2-Hydroxy-ethylamino)-3-methyl-3H-naphtho[1,2,3-de]quinoline-2,7-dione] is 8.4 µM; for `CCOC(=O)c1c(C)oc2c1c1c(c3ccccc32)OCN(Cc2cccnc2)C1` [MLS000043717] it is > 79.4 µM. The same measure, in the same setting: in the case of `Cc1ccc(-c2ccc(C(=O)O)[nH]2)cc1` [5-(4-methylphenyl)-1H-pyrrole-2-carboxylic acid] it was > 79.4 µM; in that of `Cc1cc(C(=O)CN2C(=O)NC(c3ccccc3)(c3ccccc3)C2=O)c(C)n1Cc1ccccc1` [3-[2-(1-benzyl-2,5-dimethyl-pyrrol-3-yl)-2-keto-ethyl]-5,5-diphenyl-hydantoin], > 79.4 µM.

Still in this experiment, the particulars now being: inactive by the depositor's call.
`CCNc1c2c3c(cccc3n(C)c1=O)C(=O)c1ccccc1-2` [1-(ethylamino)-3-methyl-3H-naphtho[1,2,3-de]quinoline-2,7-dione] showed an IC50 of 25.7 µM. Same read-out and setting: the figure for `CCn1c(CSc2nnc3ccccn23)nc2cc(C(=O)O)ccc21` [1-ethyl-2-[([1,2,4]triazolo[4,3-a]pyridin-3-ylthio)methyl]-5-benzimidazolecarboxylic acid] is 20.4 µM.
